Results reported in patent publication US4755524A, “Novel phenolic thioethers as inhibitors of 5-lipoxygenase” (G. D. Searle & Co., priority 1987, dated 1988).
Structures can show the parent of a compound that is named as a salt.

How the values were obtained:
[1] = system: OA-induced bronchoconstriction in the Guinea Pig; assay: In vivo inhibition of ovalbumin-induced bronchoconstriction - Anti-allergy assay
Text: (2) In vivo inhibition of ovalbumin-induced bronchoconstriction-Anti-allergy assay.
Adult, male Hartley guinea pigs (300-350 g, fasted) actively sensitized to ovalbumin are utilized in this assay.
Ovalbumin (OA) causes bronchoconstriction when administered to actively-sensitized guinea pigs. The observed bronchoconstriction is comprised of at least two distinct components:
(a) a cyclooxygenase-dependent, rapidly occurring bronchoconstriction mediated by thromboxane A2 and possibly other mediators and
(b) a 5-lipoxygenase dependent slow developing component, dependent upon the de novo generation of LTC4 and LTD4.
All test animals are pretreated with aspirin and pyrilamine to block the occurrence of the rapidly occurring component (a). Compounds which block the generation of LTC4 and LTD4 (5-lipoxygenase inhibitors) or antagonize the activity of LTC4 /LTD4 (leukotriene inhibitors) modulate the severity of the remaining component of this well-characterized anaphylactic response.
Test compounds are administered at screening doses of 50 mg/kg, i.v., or 100 mg/kg, i.g. A compound is rated active in this test if it causes a significant reduction (i.e., p 0.05, student's t-test) in intratracheal insufflation pressure induced by an i.v. injection of ovalbumin (3 mg/ml, i.v.), aspirin (5 mg/kg, i.v.) and propanolol (6 mg/kg i.p.). Treated animals are statistically compared to concurrent vehicle treated controls. Compounds rated active in inhibiting the production of the LTC4 /LTD4 allergic mediators through inhibition of 5-lipoxygenase according to this test are believed to play a significant role in bronchopulmonary allergic conditions, e.g., asthma.

5-lipoxygenase = molecular target: T1, 5-lipoxygenase (Rattus norvegicus, UniProt P12527); assay: Inhibition of 5-lipoxygenase, in vitro; assay type: biochemical; settings: 100,000×g supernatant of RBL-1 homogenate, 14C-arachidonic acid, 5-HETE measured
T1 construct: supernatant fraction of Rat Basophilic Leukemia Cell Homogenate (RBL-1) serves as a 5-lipoxygenase enzyme source; endogenous in cells; host or cells: RBL-1 (rat basophilic leukemia) cells, 100,000×g supernatant of homogenate
T1 sequence (P12527 1-673): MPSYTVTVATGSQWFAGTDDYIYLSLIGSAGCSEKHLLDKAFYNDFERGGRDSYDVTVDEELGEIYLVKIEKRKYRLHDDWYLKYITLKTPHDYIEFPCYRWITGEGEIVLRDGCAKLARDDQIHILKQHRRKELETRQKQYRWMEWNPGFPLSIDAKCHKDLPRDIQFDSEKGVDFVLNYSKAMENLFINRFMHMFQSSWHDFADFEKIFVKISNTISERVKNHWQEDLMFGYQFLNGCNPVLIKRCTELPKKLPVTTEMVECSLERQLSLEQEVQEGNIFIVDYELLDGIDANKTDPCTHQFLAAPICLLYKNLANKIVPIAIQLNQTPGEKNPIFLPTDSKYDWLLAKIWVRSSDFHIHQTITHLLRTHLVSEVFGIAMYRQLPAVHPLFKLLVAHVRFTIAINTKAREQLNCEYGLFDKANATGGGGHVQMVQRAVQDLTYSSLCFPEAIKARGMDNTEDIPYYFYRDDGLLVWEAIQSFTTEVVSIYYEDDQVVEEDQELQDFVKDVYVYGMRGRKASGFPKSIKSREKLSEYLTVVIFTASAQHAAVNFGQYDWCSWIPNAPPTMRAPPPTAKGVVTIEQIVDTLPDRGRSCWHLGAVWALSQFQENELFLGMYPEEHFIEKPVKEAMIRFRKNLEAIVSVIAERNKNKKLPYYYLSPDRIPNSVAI
Description: The compounds of the invention are evaluated with respect to 5-lipoxygenaseinhibition according to the following assay procedures.
(1) Inhibition of 5-lipoxygenase, in vitro: anti-inflammatory, anti-allergyactivities.
The 100,000×g supernatant fraction of Rat Basophilic Leukemia Cell Homogenate (RBL-1) serves as a 5-lipoxygenase enzyme source. The enzyme is incubated with [(1-^14 C)-arachidonic acid and Ca++ in the presence and absence of test compound. The product of 5-lipoxygenase, 5-hydroxyeicosatetraenoic acid (5-HETE), is separated by thin-layer chromatography and measured by radioactivity. A compound inhibiting 5-HETE synthesis by 30% or more is considered active at that concentration.

[2] = more potent than histamine; cited from earlier work
[3] = i.g. @ 3 hr., vehicle 2 (peanut oil)
[4] = i.g. @ 3 hr., vehicle 1 (20% DMSO in polyethylene glycol)

| SMILES | IC50 (5-lipoxygenase) [µM] | Antagonism of OA-induced bronchoconstriction in the Guinea Pig (min. effective dose) [1, 3] [mg/kg] | further results |
| --- | --- | --- | --- |
| CC(C)(C)c1cc(SCCSCC(=O)O)cc(C(C)(C)C)c1O [Example 3, [[2-[[3,5-bis(1,1-dimethylethyl)-4-hydroxyphenyl]thio]ethyl]thio]acetic acid, monosodium salt] | – | – | Antagonism of OA-induced bronchoconstriction in the Guinea Pig (min. effective dose) ([1]; i.g. @ 3 hr., vehicle 1 (20% DMSO in polyethylene glycol), monosodium salt): 100 mg/kg |
| CC(C)(C)c1cc(SCCSCC(=O)O)cc(C(C)(C)C)c1O [Example 4, [[2-[[3,5-bis(1,1-dimethylethyl)-4-hydroxyphenyl]thio]ethyl]thio]acetic acid] | 1.4 | 100 | – |
| CC(C)(C)c1cc(SCCSCC(=O)O)cc(C(C)(C)C)c1O [Example 6, [[2-[[3,5-bis(1,1-dimethylethyl)-4-hydroxyphenyl]thio]ethyl]thio]acetic acid, 2,2',2"nitrilotris[ethanol] salt] | 1.8 | – | Antagonism of OA-induced bronchoconstriction in the Guinea Pig (min. effective dose) [1, 4]: 50 mg/kg |
| COC(=O)CSCCSc1cc(C(C)(C)C)c(O)c(C(C)(C)C)c1 [Example 8, methyl[[2-[[3,5-bis(1,1-dimethylethyl)-4-hydroxyphenyl]thio]ethyl]thio]acetate] | – | – | Antagonism of OA-induced bronchoconstriction in the Guinea Pig (min. effective dose) [1, 4]: 100 mg/kg |
| CCOC(=O)C[S+]([O-])CCSc1cc(C(C)(C)C)c(O)c(C(C)(C)C)c1 (centres unmarked) [Example 12, ethyl[[2-[[3,5-bis(1,1-dimethylethyl)-4-hydroxyphenyl]thio]ethyl]sulfinyl]acetate] | 0.33 | – | – |
| CC(C)(C)c1cc(SCCSCCC(=O)O)cc(C(C)(C)C)c1O [Example 13, 3-[[2-[[3,5-bis(1,1-dimethylethyl)-4-hydroxyphenyl]thio]ethyl]thio]propanoic acid] | 1 | – | Antagonism of OA-induced bronchoconstriction in the Guinea Pig (min. effective dose) ([1]; i.g. @ 5 hr., vehicle 2 (peanut oil)): 100 mg/kg |
| COC(=O)CCCSCCSc1cc(C(C)(C)C)c(O)c(C(C)(C)C)c1 [Example 15, methyl 4-[[2-[[3,5-bis(1,1-dimethylethyl)-4-hydroxyphenyl]thio]ethyl]thio]butanoate] | 0.12 | – | – |
| CCOC(=O)CS(=O)(=O)CCSc1cc(C(C)(C)C)c(O)c(C(C)(C)C)c1 [Example 17, ethyl[[2-[[3,5-bis(1,1-dimethylethyl)-4-hydroxyphenyl]thio]ethyl]sulfonyl]acetate] | 0.3 | – | – |
| COC(=O)CSC(C)C(C)Sc1cc(C(C)(C)C)c(O)c(C(C)(C)C)c1 (centres unmarked) [Example 19, methyl[[2-[[3,5-bis(1,1-dimethylethyl)-4-hydroxyphenyl]thio]-1-methylpropyl]thio]acetate] | 0.24 | 32 | – |
| CC(SCC(=O)O)C(C)Sc1cc(C(C)(C)C)c(O)c(C(C)(C)C)c1 (centres unmarked) [Example 20, [[2-[[3,5-bis(1,1-dimethylethyl)-4-hydroxyphenyl]thio]-1-methylpropyl]thio]acetic acid] | 0.82 | 32 | – |
| CC(C)(C)c1cc(SCCOCC(=O)O)cc(C(C)(C)C)c1O [Example 31, [2-[[3,5-bis(1,1-dimethylethyl)-4-hydroxyphenyl]thio]ethoxy]acetic acid] | 7.3 | – | – |
| Cc1cc(SCCSCC(=O)O)ccc1O [Example 34, [[2-[(4-hydroxy-3-methylphenyl)thio]ethyl]thio]acetic acid, reference compound] | ~100 | 100 | – |
| O=C(O)CSCCSc1ccc(O)cc1 [Example 37, [[2-[(4-hydroxyphenyl)thio]ethyl]thio]acetic acid, reference compound] | 55 | 100 | – |
| COC(=O)CSCC(O)CSc1cc(C(C)(C)C)c(O)c(C(C)(C)C)c1 (centres unmarked) [Example 42, methyl[[3-[[3,5-bis(1,1-dimethylethyl)-4-hydroxyphenyl]thio]-2-hydroxypropyl]thio]acetate] | 0.31 | – | Antagonism of OA-induced bronchoconstriction in the Guinea Pig (min. effective dose) ([1]; i.g. @ 2 hr., vehicle 1 (20% DMSO in polyethylene glycol)): 50 mg/kg |
| CCCCC/C=C\C\C=C/C=C/C=C/[C@@H](SC[C@H](NC(=O)CC[C@H](N)C(=O)O)C(=O)NCC(=O)O)[C@@H](O)CCCC(=O)O [LTC4] | – | – | potency relative to histamine in causing long lasting bronchoconstricting effects [2]: at least 100 times |
